Reference: article PMC8100298, “Histone deacetylase inhibitor resminostat in combination with sorafenib counteracts platelet-mediated pro-tumoral effects in hepatocellular carcinoma” (Scientific Reports, 2021)
Read-outs that look alike come from different tables or passages of the source.

How the values were obtained:
Assay in all cases: Efficacy screening assay
Assay type in all cases: cell-based
HT29 = conditions: HT29, colon
Protocol: (§1) The experiment was performed by Oncolead GmbH & Co. KG (Karlsfeld , Germany), based on a standardized screening procedure . Cell lines were purchased directly from the ATCC, NCI and DSMZ cell line c ollections. Cells used for the study had undergone less than 20 passages. To ensure the absence of potential contamination and wrong assignment, all cell lines were tested using a whole genome assay (Agilent, USA). All cell lines were grown as recommended by the suppliers and with addition of 100 U/mL penicillin G and 100 µg/mL; streptomycin. Cell growth and treatments were performed in Nunclon D 96 -well plates (NUNC, Germany). The optimal seeding density for each cell line was determined to ensure exponential growth for the duration of the experiment. All cells growing without anti-cancer agents were sub-conﬂuent by the end of the treatment, as determined by visual inspection.
(§2) After an initial 24 h pre-growth period, the compounds were added. The vehicle concentration […]
(§3) was 0.1% DMSO. After incubation at 37°C for 72 h, the culture medium was aspirated, and the cells were precipitated by the addition of 10% trichloroacetic acid (Sigma-Aldrich, Missouri, US). After overnight incubation at 4°C, the plates were washed three times with deionized water. The precipitates were then stained with SRB (0.4% wt/v sulforhodamine B solution in 1% acetic acid, Sigma-Aldrich, Missouri, US). Afterwards, the plates were washed six times with 1% acetic acid to remove unbound stain. After drying the plates at room temperature, the bound SRB was solubilized with 10 mM Tris base and the optical density was measured at 520 nm using a Victor2 plate reader (Perkin Elmer, Germany). Blank OD values were subtracted from mean OD values for each concentration. The nonlinear curve ﬁtting and EC50 calculations were per formed using XLﬁt and algorithm “205” (ID Business […]
(§4) For comparison of EC50 values in Figure 1F, one-way ANOVA with multiple comparison testing (Tukey) was performed. Multiplicity adjusted p -values for the EC50 with sorafenib versus resminostat for each cell line and comparison between cell lines for sorafenib are presented (95% confidence interval for significance testing). For comparison of EC50 data in Figure 2B, one-way ANOVA with multiple comparison testing (Tukey) was performed. Multiplicity adjusted p-values with 95% confidence interval was applied. For the invasion assays in Figure 4, one-way ANOVA with multiple comparison testing (Tukey) was performed. Multiplicity adjusted p-values with 95% confidence interval was applied. The adjusted p-values comparing vehicle control without vs. with platelets and compound

UMUC3 = conditions: UMUC3, bladder
Protocol: as §1, §2, §3, §4

OVCAR4 = conditions: OVCAR4, ovary
Protocol: as §1, §2, §3, §4

SKNSH = conditions: 72 h, brain
Protocol: as §1, §2, §3, §4

PANC1005 = conditions: PANC1005, pancreas
Protocol: as §1, §2, §3, §4

SF268 = conditions: SF268, brain
Protocol: as §1, §2, §3, §4

HS578T = conditions: 72 h, breast
Protocol: as §1, §2, §3, §4

NCIH460 = conditions: NCIH460, lung
Protocol: as §1, §2, §3, §4

SKBR3 = conditions: SKBR3, breast
Protocol: as §1, §2, §3, §4

SKNAS = conditions: 72 h, brain
Protocol: as §1, §2, §3, §4

UO31 = conditions: UO31, kidney
Protocol: as §1, §2, §3, §4

EFO21 = conditions: EFO21, ovary
Protocol: as §1, §2, §3, §4

EJ28 = conditions: EJ28, bladder
Protocol: as §1, §2, §3, §4

SAOS2 = conditions: SAOS2, bone
Protocol: as §1, §2, §3, §4

OVCAR3 = conditions: OVCAR3, ovary
Protocol: as §1, §2, §3, §4

HCT116 = conditions: HCT116, colon
Protocol: as §1, §2, §3, §4

CN(C)Cc1ccc(S(=O)(=O)n2ccc(/C=C/C(=O)NO)c2)cc1 [resminostat, Resminostat]
EC50 (HT29; 72 h, read-out: EC50): 3 µM | EC50 (HT29; Homo sapiens, HT-29, 72 h, log of EC50, negative, read-out: log(EC50) (converted)): 3.02 µM | EC50 (HT29; Homo sapiens, HT-29, 72 h, read-out: EC50): 3 µM | EC50 (UMUC3; Homo sapiens, UMUC3, 72 h, log of EC50, negative, read-out: log(EC50) (converted)): 3.24 µM | EC50 (UMUC3; Homo sapiens, UMUC3, 72 h, read-out: EC50): 3.24 µM | EC50 (UMUC3; 72 h, read-out: EC50): 3.24 µM | EC50 (OVCAR4; Homo sapiens, OVCAR-4, 72 h, log of EC50, negative, read-out: log(EC50) (converted)): 4.07 µM | EC50 (OVCAR4; Homo sapiens, OVCAR-4, 72 h, read-out: EC50): 4.04 µM | EC50 (OVCAR4; 72 h, read-out: EC50): 4.04 µM | EC50 (SKNSH; Homo sapiens, SK-N-SH, log of EC50, negative, read-out: log(EC50) (converted)): 3.63 µM | EC50 (SKNSH; Homo sapiens, SK-N-SH, read-out: EC50): 3.67 µM | EC50 (SKNSH; read-out: EC50): 3.67 µM | EC50 (PANC1005; Homo sapiens, Panc1005, 72 h, log of EC50, negative, read-out: log(EC50) (converted)): 5.75 µM | EC50 (PANC1005; Homo sapiens, Panc1005, 72 h, read-out: EC50): 5.74 µM | EC50 (PANC1005; 72 h, read-out: EC50): 5.74 µM | EC50 (SF268; Homo sapiens, SF-268, 72 h, log of EC50, negative, read-out: log(EC50) (converted)): 2.19 µM | EC50 (SF268; Homo sapiens, SF-268, 72 h, read-out: EC50): 2.19 µM | EC50 (SF268; 72 h, read-out: EC50): 2.19 µM | EC50 (HS578T; Homo sapiens, Hs-578T, log of EC50, negative, read-out: log(EC50) (converted)): 3.98 µM | EC50 (HS578T; Homo sapiens, Hs-578T, read-out: EC50): 4.03 µM | EC50 (HS578T; read-out: EC50): 4.03 µM | EC50 (NCIH460; Homo sapiens, NCI-H460, 72 h, log of EC50, negative, read-out: log(EC50) (converted)): 2.14 µM | EC50 (NCIH460; Homo sapiens, NCI-H460, 72 h, read-out: EC50): 2.12 µM | EC50 (NCIH460; 72 h, read-out: EC50): 2.12 µM | EC50 (SKBR3; Homo sapiens, SK-BR-3, 72 h, log of EC50, negative, read-out: log(EC50) (converted)): 0.933 µM | EC50 (SKBR3; Homo sapiens, SK-BR-3, 72 h, read-out: EC50): 0.93 µM | EC50 (SKBR3; 72 h, read-out: EC50): 0.93 µM | EC50 (SKNAS; Homo sapiens, SK-N-AS, log of EC50, negative, read-out: log(EC50) (converted)): 3.55 µM | EC50 (SKNAS; Homo sapiens, SK-N-AS, read-out: EC50): 3.54 µM | EC50 (SKNAS; read-out: EC50): 3.54 µM | EC50 (UO31; Homo sapiens, UO-31, 72 h, log of EC50, negative, read-out: log(EC50) (converted)): 0.0724 µM | EC50 (UO31; Homo sapiens, UO-31, 72 h, read-out: EC50): 0.0722 µM | EC50 (UO31; 72 h, read-out: EC50): 0.07 µM | EC50 (EFO21; 72 h, read-out: EC50): 7.17 µM | EC50 (EFO21; Homo sapiens, EFO-21, 72 h, log of EC50, negative, read-out: log(EC50) (converted)): 7.24 µM | EC50 (EFO21; Homo sapiens, EFO-21, 72 h, read-out: EC50): 7.17 µM | EC50 (EJ28; 72 h, read-out: EC50): 4.59 µM | EC50 (EJ28; Homo sapiens, EJ-28, 72 h, log of EC50, negative, read-out: log(EC50) (converted)): 4.57 µM | EC50 (EJ28; Homo sapiens, EJ-28, 72 h, read-out: EC50): 4.59 µM | EC50 (SAOS2; Homo sapiens, SAOS-2, 72 h, log of EC50, negative, read-out: log(EC50) (converted)): 1.91 µM | EC50 (SAOS2; Homo sapiens, SAOS-2, 72 h, read-out: EC50): 1.89 µM | EC50 (SAOS2; 72 h, read-out: EC50): 1.89 µM | EC50 (OVCAR3; Homo sapiens, OVCAR-3, 72 h, log of EC50, negative, read-out: log(EC50) (converted)): 3.55 µM | EC50 (OVCAR3; Homo sapiens, OVCAR-3, 72 h, read-out: EC50): 3.55 µM | EC50 (OVCAR3; 72 h, read-out: EC50): 3.55 µM | EC50 (HCT116; 72 h, read-out: EC50): 0.79 µM | EC50 (HCT116; Homo sapiens, HCT-116, 72 h, log of EC50, negative, read-out: log(EC50) (converted)): 0.794 µM | EC50 (HCT116; Homo sapiens, HCT-116, 72 h, read-out: EC50): 0.792 µM
